“And” between values parts separate entries of the source, which are not always exact repeats. Identical values can stand only once. Like-named read-outs stand apart in the source and are kept apart here.
Columns and labels:
CSNK1D = target: T1, CSNK1D (Homo sapiens, UniProt P48730); assay: Liability panel screening by DSF: CSNK1D; type: binding; settings: read-out: Mean ΔTM CSNK1D
T1 construct: made in house
Method in brief: (§1)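 ∆Tm in K was taken from Boltzmann-fitted unfolding inflection points, run in duplicate with a temperature ramp of 3 °C per minute up to 85 °C. Each recombinant protein (2 µM) was in HEPES 10 mM pH 7.5 and NaCl 500 mM, with SYPRO Orange dye at 1:1000.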

HEK293T cells [1] = assay: Cytotoxicity: apoptosis induction (caspase-3/7 DEVD fluorogenic DNA dye); settings: 1 µM; HEK293T, 24 h; apoptotic cell count normalized to 0.1% DMSO; single replicates
AURKA = target: T2, AURKA (Homo sapiens, UniProt O14965); assay: Liability panel screening by DSF: AURKA; type: binding; settings: read-out: Mean ΔTM AURKA
T2 construct: made in house
T2 sequence (O14965 1-403): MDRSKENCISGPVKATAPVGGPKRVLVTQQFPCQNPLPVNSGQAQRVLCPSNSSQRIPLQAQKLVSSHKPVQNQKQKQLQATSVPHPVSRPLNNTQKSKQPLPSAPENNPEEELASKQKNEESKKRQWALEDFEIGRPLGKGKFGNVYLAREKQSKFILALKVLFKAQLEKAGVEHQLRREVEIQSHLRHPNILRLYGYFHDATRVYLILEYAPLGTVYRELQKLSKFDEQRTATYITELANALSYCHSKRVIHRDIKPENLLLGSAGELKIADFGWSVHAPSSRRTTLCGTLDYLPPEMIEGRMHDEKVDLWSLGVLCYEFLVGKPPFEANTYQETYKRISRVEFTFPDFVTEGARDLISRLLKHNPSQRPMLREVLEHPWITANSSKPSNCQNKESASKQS
Method in brief: as §1

HEK293T cells [2] = assay: Cytotoxicity: growth-rate (change in confluence over 24 h); settings: 1 µM, normalized to 0.1% DMSO control, single replicates (n=1...)
TRIM24 = target: T3, TRIM24 (Homo sapiens, UniProt O15164); assay: Liability panel screening by DSF: TRIM24; type: binding; settings: read-out: Mean ΔTM TRIM24
T3 construct: This panel comprised ten highly ligandable kinases and bromodomains; made in house
T3 sequence (O15164 899-1004 limits assumed): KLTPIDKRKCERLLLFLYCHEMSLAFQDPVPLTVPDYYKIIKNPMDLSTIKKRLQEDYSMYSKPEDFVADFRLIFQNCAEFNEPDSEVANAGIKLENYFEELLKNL
Method in brief: as §1

[3] = system: NF-κB activity in HEK293 NF-κB reporter cells; assay: NF-kB activity assay (GFP reporter, ionomycin/PMA); type: cell-based; settings: for Mean NFκB response: n=3; for NF-κB activity (inflammatory response to ionomycin/PMA): HEK293 NF-κB reporter cells, compounds at recommended concentrations, imaged over 24 h, n = 3
Method in brief: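 HEK293 NF-κB GFP reporter cells given compound in 0.1% DMSO for 4 h, then stimulated with ionomycin 100 ng/mL plus PMA 10 ng/mL. Imaged every 90 min over 24 h; GFP-positive cell count normalized to confluence, three independent biological replicates.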

ABL1 = target: T4, ABL1 (Homo sapiens, UniProt P00519); assay: Liability panel screening by DSF: ABL1; type: binding; settings: read-out: Mean ΔTM ABL1
T4 construct: made in house
T4 sequence (P00519 whole entry, species assumed): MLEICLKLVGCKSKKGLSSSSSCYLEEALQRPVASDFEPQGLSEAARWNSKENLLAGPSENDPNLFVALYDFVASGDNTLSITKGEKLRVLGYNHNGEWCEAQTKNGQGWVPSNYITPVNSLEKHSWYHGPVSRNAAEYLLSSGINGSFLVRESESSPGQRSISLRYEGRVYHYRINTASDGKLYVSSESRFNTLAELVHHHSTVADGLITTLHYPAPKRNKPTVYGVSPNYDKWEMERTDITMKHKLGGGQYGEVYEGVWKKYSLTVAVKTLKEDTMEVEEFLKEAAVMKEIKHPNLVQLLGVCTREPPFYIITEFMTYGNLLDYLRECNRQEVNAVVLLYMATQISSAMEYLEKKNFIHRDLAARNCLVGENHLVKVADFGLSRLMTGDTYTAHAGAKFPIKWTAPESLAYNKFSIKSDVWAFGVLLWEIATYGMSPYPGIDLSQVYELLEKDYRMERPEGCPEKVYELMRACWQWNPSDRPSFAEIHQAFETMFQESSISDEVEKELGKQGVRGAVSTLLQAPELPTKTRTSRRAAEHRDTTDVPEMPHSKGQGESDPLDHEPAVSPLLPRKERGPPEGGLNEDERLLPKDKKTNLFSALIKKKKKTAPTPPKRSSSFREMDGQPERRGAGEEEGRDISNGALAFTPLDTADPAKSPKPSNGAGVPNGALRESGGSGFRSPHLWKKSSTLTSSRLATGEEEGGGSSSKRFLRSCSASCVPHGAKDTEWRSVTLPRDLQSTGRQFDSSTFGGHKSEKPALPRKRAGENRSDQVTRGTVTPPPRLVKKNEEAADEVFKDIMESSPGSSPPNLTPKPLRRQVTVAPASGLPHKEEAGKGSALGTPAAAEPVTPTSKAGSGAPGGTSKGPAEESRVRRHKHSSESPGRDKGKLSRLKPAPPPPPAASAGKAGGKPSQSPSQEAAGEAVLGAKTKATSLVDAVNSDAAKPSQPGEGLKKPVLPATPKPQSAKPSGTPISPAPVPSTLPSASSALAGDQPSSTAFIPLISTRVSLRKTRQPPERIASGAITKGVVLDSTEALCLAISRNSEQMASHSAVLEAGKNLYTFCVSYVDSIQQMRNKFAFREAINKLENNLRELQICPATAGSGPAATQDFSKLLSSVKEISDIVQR
Method in brief: as §1

[4] = system: ATF6 activity in Hela ATF6 reporter cells; assay: Endoplasmic reticulum stress assay (ATF6 Renilla luciferase reporter, tunicamycin); type: cell-based; settings: Homo sapiens, HeLa, 1 µM, single replicates n=1 to n=5; read-out: ER stress [rel. ATF6 activity]
Method in brief: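 HeLa ATF6 Renilla reporter cells were pretreated 4 h with compounds in 0.1% DMSO, then stimulated with tunicamycin (100 ng/mL) for 18 h. Renilla luminescence (DualGlo) was normalized to 0.1% DMSO control; five independent experiments.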

HEK293T cells [5] = assay: Cytotoxicity: necrosis induction (red fluorescent dye for permeable plasma membranes); type: cell-based; settings: 1 µM, 24 h, necrotic cell count normalized to 0.1% DMSO, single replicates;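 note: compounds applied in DMEM high glucose with 0.1% FCS and 0.1% DMSO, necrotic HEK293T cells counted by red staining of cells whose plasma membranes had become permeable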
Description: Cells were incubated with the test compounds at the indicated concentrations solubilized with 0.1% DMSO for 24 h. […] Necrotic cells were detected with a red fluorescent dye that labels cells with permeable plasma membranes after 24 h treatment and the necrotic cell count was normalized to 0.1% DMSO treated cells (n = 4). e NR family selectivity profiling of NR3 CG compound candidates in uniform Gal4-hybrid reporter gene assays for selected NR representing the NR1, NR2, NR4 and NR5 families.
HEK293T cells (German Collection of Microorganisms and Cell Culture GmbH, DSMZ; #ACC305) were cultured in DMEM high glucose, supplemented with 10% fetal calf serum (FCS), sodium pyruvate (1 mM), penicillin (100 µ/mL) and streptomycin (100 µg/mL) at 37 °C and 5% (v/v) CO2, and seeded in pre-coated (10 µg/mL collagen G solution (Merck KgaA; #L7213) for 30 min at 37 °C) 96-well plates (2 × 10^5 cells per well). After 24 h, the cells were treated with the respective NR3 CG compound candidate at the recommended concentration, bexarotene (100 µM) or doxorubicin (30 µM) as positive controls in DMEM high glucose supplemented with 0.1% FCS, penicillin (100 µ/mL), streptomycin (100 µg/mL) and 0.1% DMSO, or 0.1% DMSO alone as an untreated control. Each sample was prepared in at least four biologically independent replicates. […] Before drug administration, after the first medium exchange, 24 h after drug administration, and after fluorescence imaging cell confluence was assessed using the Tecan Spark Cyto, to account for changes in cell confluence due to drug administration and cell handling. Compound effects on cell confluence, apoptosis, metabolic activity and necrosis were normalized to the vehicle control of each biological replicate individually.

BRD4 = target: T5, BRD4 (Homo sapiens, UniProt O60885); assay: Liability panel screening by DSF: BRD4; type: binding; settings: read-out: Mean ΔTM BRD4
T5 construct: This panel comprised ten highly ligandable kinases and bromodomains; made in house
Method in brief: as §1

CDK2 = target: T6, CDK2 (Homo sapiens, UniProt P24941); assay: Liability panel screening by DSF: CDK2; type: binding; settings: read-out: Mean ΔTM CDK2
T6 construct: made in house
Method in brief: as §1

HEK293T cells [6] = assay: Cytotoxicity: metabolic activity (WST-8 / CCK-8 assay); settings: 1 µM; HEK293T, 24 h; WST-8; normalized to 0.1% DMSO; single replicates
GSK3B = target: T7, GSK3B (Homo sapiens, UniProt P49841); assay: Liability panel screening by DSF: GSK3B; type: binding; settings: read-out: Mean ΔTM GSK3B
T7 construct: made in house
T7 sequence (P49841 whole entry, species assumed): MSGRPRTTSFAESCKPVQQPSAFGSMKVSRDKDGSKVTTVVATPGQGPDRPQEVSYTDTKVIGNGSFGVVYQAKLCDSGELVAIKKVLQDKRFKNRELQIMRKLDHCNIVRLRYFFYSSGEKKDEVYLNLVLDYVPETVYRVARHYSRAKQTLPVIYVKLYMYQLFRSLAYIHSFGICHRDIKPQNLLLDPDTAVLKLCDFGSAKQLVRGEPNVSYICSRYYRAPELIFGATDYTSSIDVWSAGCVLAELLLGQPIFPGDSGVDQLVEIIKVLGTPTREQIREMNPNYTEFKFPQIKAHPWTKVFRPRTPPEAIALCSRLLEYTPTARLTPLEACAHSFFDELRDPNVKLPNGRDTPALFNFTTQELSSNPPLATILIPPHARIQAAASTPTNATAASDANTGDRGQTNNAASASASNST

FGFR3 = target: T8, FGFR3 (Homo sapiens, UniProt P22607); assay: Liability panel screening by DSF: FGFR3; type: binding; settings: read-out: Mean ΔTM FGFR3
T8 construct: made in house
T8 sequence (P22607 23-806, species assumed): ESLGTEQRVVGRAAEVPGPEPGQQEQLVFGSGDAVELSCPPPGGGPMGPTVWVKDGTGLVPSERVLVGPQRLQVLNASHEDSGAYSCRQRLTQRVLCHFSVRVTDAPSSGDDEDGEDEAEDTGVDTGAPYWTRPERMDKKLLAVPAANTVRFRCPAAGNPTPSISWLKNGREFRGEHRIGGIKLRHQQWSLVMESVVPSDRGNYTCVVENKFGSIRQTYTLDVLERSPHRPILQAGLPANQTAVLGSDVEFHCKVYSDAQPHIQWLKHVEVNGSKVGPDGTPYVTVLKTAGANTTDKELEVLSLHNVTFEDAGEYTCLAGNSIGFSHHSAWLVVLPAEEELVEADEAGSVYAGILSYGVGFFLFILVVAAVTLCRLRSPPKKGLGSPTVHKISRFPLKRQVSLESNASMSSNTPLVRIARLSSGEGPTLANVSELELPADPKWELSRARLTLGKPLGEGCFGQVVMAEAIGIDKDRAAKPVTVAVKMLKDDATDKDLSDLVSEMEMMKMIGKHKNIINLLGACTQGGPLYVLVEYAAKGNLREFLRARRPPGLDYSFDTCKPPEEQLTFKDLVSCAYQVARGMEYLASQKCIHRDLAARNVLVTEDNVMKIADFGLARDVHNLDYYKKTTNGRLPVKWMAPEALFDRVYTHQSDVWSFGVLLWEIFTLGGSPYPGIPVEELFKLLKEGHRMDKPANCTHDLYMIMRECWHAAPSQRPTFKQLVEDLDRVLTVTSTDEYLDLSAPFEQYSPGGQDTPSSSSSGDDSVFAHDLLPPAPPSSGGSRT
Method in brief: as §1

MAPK1 = target: T9, MAPK1 (Homo sapiens, UniProt P28482); assay: Liability panel screening by DSF: MAPK1; type: binding; settings: read-out: Mean ΔTM MAPK1
T9 construct: made in house
T9 sequence (P28482 whole entry, species assumed): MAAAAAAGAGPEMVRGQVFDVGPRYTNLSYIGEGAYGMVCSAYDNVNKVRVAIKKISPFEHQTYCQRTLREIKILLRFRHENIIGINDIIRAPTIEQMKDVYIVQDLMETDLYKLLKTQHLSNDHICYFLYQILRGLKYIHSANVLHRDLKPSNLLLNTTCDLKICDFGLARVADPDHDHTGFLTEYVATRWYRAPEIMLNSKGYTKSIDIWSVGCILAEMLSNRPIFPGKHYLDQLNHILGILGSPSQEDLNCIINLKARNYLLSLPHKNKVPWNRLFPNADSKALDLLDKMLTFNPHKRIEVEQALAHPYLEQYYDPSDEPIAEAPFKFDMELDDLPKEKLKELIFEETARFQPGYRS
Method in brief: as §1

NR3C4 (AR) = settings: cited from earlier work
Gal4-VP16 = type: cell-based; settings: 1 µM; vs. DMSO ctrl; single replicates n=1-3
BRPF1 = target: T10, BRPF1 (Homo sapiens, UniProt P55201); assay: Liability panel screening by DSF: BRPF1; type: binding; settings: read-out: Mean ΔTM BRPF1
T10 construct: This panel comprised ten highly ligandable kinases and bromodomains; made in house
T10 sequence (P55201 628-732 limits assumed): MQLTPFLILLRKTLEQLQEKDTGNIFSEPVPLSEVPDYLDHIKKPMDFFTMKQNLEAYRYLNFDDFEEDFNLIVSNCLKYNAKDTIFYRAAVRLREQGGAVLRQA
Method in brief: as §1

T1 sequence (P48730 whole entry, species assumed): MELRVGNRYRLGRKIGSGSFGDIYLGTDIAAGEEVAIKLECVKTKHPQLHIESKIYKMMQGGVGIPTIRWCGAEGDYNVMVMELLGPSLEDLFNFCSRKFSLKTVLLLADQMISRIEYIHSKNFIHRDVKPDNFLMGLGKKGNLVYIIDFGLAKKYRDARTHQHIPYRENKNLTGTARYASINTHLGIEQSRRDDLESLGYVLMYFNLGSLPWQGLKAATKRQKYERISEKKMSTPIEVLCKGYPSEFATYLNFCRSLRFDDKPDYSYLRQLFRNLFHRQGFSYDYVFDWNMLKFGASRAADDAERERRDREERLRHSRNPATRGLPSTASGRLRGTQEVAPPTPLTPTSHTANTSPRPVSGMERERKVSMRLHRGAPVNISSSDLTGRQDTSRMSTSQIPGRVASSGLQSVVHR

| Structure (SMILES) | Apoptosis induction [AI] (HEK293T cells [1]) | Growth rate [GR] (HEK293T cells [2]) | Mean NFκB response ([3]; 1 µM, 1,5 h) | Mean NFκB response ([3]; 1 µM, 4,5 h) | Mean NFκB response ([3]; 1 µM, 7,5 h) | Mean NFκB response ([3]; 1 µM, 10,5 h) | Mean NFκB response ([3]; 1 µM, 13,5 h) | Mean NFκB response ([3]; 1 µM, 16,6 h) | Mean NFκB response ([3]; 1 µM, 19,5 h) | Mean NFκB response ([3]; 1 µM, 22,5 h) | Mean NFκB response ([3]; 1 µM, 3 h) | Mean NFκB response ([3]; 1 µM, 6 h) | Mean NFκB response ([3]; 1 µM, 9 h) | Mean NFκB response ([3]; 1 µM, 12 h) | Mean NFκB response ([3]; 1 µM, 15 h) | Mean NFκB response ([3]; 1 µM, 18 h) | Mean NFκB response ([3]; 1 µM, 21 h) | Mean NFκB response ([3]; 1 µM, 24 h) | NF-κB activity (inflammatory response to ionomycin/PMA) [3] | Necrosis induction [NI] (HEK293T cells [5]) | other results |
| --- | --- | --- | --- | --- | --- | --- | --- | --- | --- | --- | --- | --- | --- | --- | --- | --- | --- | --- | --- | --- | --- |
| CC(=O)Nc1ccc(OC[C@](C)(O)C(=O)Nc2ccc([N+](=O)[O-])c(C(F)(F)F)c2)cc1 [Andarine] | 0.62 and 0.88 and 1.01 and 1.08 and 0.95 and 0.84 | 0.83 (2×) and 2.46 and 0.88 and 1.35 and 0.73 and 0.55 and 1.46 and 1.51 and 2.55 | 2599.83 GFP+-cells/confluence ∙ 1000 | 2912.69 GFP+-cells/confluence ∙ 1000 | 4207.99 GFP+-cells/confluence ∙ 1000 | 8408.10 GFP+-cells/confluence ∙ 1000 | 11806.03 GFP+-cells/confluence ∙ 1000 | 14271.49 GFP+-cells/confluence ∙ 1000 | 16631.36 GFP+-cells/confluence ∙ 1000 | 18398.57 GFP+-cells/confluence ∙ 1000 | 2627.11 GFP+-cells/confluence ∙ 1000 | 3252.11 GFP+-cells/confluence ∙ 1000 | 5899.76 GFP+-cells/confluence ∙ 1000 | 10166.51 GFP+-cells/confluence ∙ 1000 | 13144.54 GFP+-cells/confluence ∙ 1000 | 15566.10 GFP+-cells/confluence ∙ 1000 | 17508.52 GFP+-cells/confluence ∙ 1000 | 19523.33 GFP+-cells/confluence ∙ 1000 | anti-inflammatory effect | 0.97 and 1.10 and 1.08 and 1.02 | ΔTm at 20 µM (CSNK1D): 0.23 °C; ΔTm at 20 µM (AURKA): -0.0326 °C; ΔTm at 20 µM (TRIM24): 0.0216 °C; ΔTm at 20 µM (ABL1): 0.78 °C; activity at 1 µM [4]: 93%; ΔTm at 20 µM (BRD4): -0.77 °C; ΔTm at 20 µM (CDK2): 0.35 °C; Metabolic activity [MA] (HEK293T cells [6]): 0.98 and 1.03 and 0.99 and 1.08 and 1.06 (2×) and 1.01 and 1.09; ΔTm at 20 µM (GSK3B): 0.71 °C; ΔTm at 20 µM (FGFR3): 2.59 °C; ΔTm at 20 µM (MAPK1): -0.26 °C; rel. activity from literature, NR3C4 (AR): % of DHT (NR3C4 (AR); of DHT (dihydrotestosterone), ref Supplementary Table 1): 93 ± 7%; EC50 (NR3C4 (AR); read-out: Potency [nM] EC50, NR3C4 (AR), (lit.), ref Supplementary Table 1): 4 ± 0.7 nM; VP16 control [fold reporter gene activity] (Gal4-VP16): 1.16 fold reporter gene activity and 1.15 fold reporter gene activity and 1.08 fold reporter gene activity; ΔTm at 20 µM (BRPF1): 0.97 °C |
| CC(=O)O[C@]1(C(C)=O)CC[C@H]2[C@@H]3C=C(Cl)C4=CC(=O)[C@@H]5C[C@@H]5[C@]4(C)[C@H]3CC[C@@]21C [Cyproterone acetate] | 0.80 and 0.89 and 0.91 and 1.07 and 1.28 and 0.67 | 1.11 and 1.76 and 1.28 and 1.77 and 1.08 and 0.80 (2×) and 0.94 and 0.96 and 1.44 | 3306.11 GFP+-cells/confluence ∙ 1000 | 3956.53 GFP+-cells/confluence ∙ 1000 | 9166.88 GFP+-cells/confluence ∙ 1000 | 19295.79 GFP+-cells/confluence ∙ 1000 | 27594.44 GFP+-cells/confluence ∙ 1000 | 34636.12 GFP+-cells/confluence ∙ 1000 | 38741.56 GFP+-cells/confluence ∙ 1000 | 41845.76 GFP+-cells/confluence ∙ 1000 | 3525.65 GFP+-cells/confluence ∙ 1000 | 5348.79 GFP+-cells/confluence ∙ 1000 | 14582.16 GFP+-cells/confluence ∙ 1000 | 23573.19 GFP+-cells/confluence ∙ 1000 | 31392.99 GFP+-cells/confluence ∙ 1000 | 36648.57 GFP+-cells/confluence ∙ 1000 | 40465.37 GFP+-cells/confluence ∙ 1000 | 42894.68 GFP+-cells/confluence ∙ 1000 | tended to enhance NF-κB activity | 0.92 and 0.81 and 0.87 and 0.98 | ΔTm at 20 µM (CSNK1D; DSF, 20 µM, n=2): 0.16 °C; ΔTm at 20 µM (AURKA; DSF, 20 µM, n=2): -1.49 °C; ΔTm at 20 µM (TRIM24; DSF, 20 µM, n=2): -1.08 °C; ΔTm at 20 µM (ABL1; DSF, 20 µM, n=2): 0.36 °C; ΔTm at 20 µM (BRD4; DSF, 20 µM, n=2): -1.71 °C; ΔTm at 20 µM (CDK2; DSF, 20 µM, n=2): 0.15 °C; Metabolic activity [MA] (HEK293T cells [6]): 1.02 (2×) and 0.92 and 0.98 and 1.01 and 0.94 and 0.99 and 1.05; ΔTm at 20 µM (GSK3B; DSF, 20 µM, n=2): -0.72 °C; ΔTm at 20 µM (FGFR3; DSF, 20 µM, n=2): 0.57 °C; ΔTm at 20 µM (MAPK1; DSF, 20 µM, n=2): -0.22 °C; rel. activity from literature, NR3C4 (AR): % rem. act. of DHT (NR3C4 (AR)): 52 ± 6%; IC50 (NR3C4 (AR); read-out: Potency [nM] IC50, NR3C4 (AR)): 26 ± 23 nM; VP16 control [fold reporter gene activity] (Gal4-VP16): 1.23 fold reporter gene activity and 1.09 fold reporter gene activity and 0.95 fold reporter gene activity; ΔTm at 20 µM (BRPF1; DSF, 20 µM, n=2): -1.28 °C |

From publication PMC11790914, “Chemogenomics for steroid hormone receptors (NR3)” (Communications Chemistry, 2025)
